The source of these data is PubChem BioAssay AID296 (DTP/NCI, 2004).

“And” between values parts separate entries of the source, which are not always exact repeats. Equal values may be shown once. Inconclusive results are not listed.

In this assay the test system is MX-1 breast xenograft, nude mice, tumor weight T/C. Description: NCI In Vivo Anticancer Drug Screen. Data for tumor model Human Mammary Carcinoma MX-1 Xenograft (intrarenal inoculation) in NU/NU Swiss (nude) mice. The conditions noted are these: endpoint: mean tumor weight change, higher = larger tumour. The method, boiled down:
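Read-out: treated (T) over vehicle control (C) ratio of survival or tumor size. Dosing in animals carrying the transplanted tumor.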
For orientation: A xenograft is tissue or cells of one species grown in another, often human tumour cells in immunodeficient mice.

Setting [1] is: dose: 100.0 mg/kg/injection, schedule: Q01DX010 (sc), vehicle: saline with Tween-80.
[2] abbreviates: dose: 200.0 mg/kg/injection, schedule: Q01DX010 (sc), vehicle: saline with Tween-80.
[3] abbreviates: dose: 50.0 mg/kg/injection, schedule: Q01DX010 (sc), vehicle: saline.
Where [4] appears, read: dose: 100.0 mg/kg/injection, schedule: Q01DX010 (sc), vehicle: saline.
[5] abbreviates: dose: 300.0 mg/kg/injection, schedule: Q04DX003 (sc), vehicle: water.
Setting [6] is: dose: 600.0 mg/kg/injection, schedule: Q04DX003 (sc), vehicle: water.
The mark [7] stands for this setting: dose: 1200.0 mg/kg/injection, schedule: Q04DX003 (sc), vehicle: water.
[8] abbreviates: dose: 2400.0 mg/kg/injection, schedule: Q04DX003 (sc), vehicle: water.

With `CCOC(=O)c1ccc(NC(=O)Nc2nncs2)cc1`, the T/C was 44 % of control (dose: 50.0 mg/kg/injection, schedule: Q01DX010 (sc), vehicle: distilled water + Tween-80); 65 % of control under setting [1]; 62 % of control under setting [2]; 65 % of control (dose: 400.0 mg/kg/injection, schedule: Q01DX010 (sc), vehicle: saline with Tween-80); 120 % of control (dose: 800.0 mg/kg/injection, schedule: Q01DX010 (sc), vehicle: distilled water + Tween-80); 37 % of control (dose: 800.0 mg/kg/injection, schedule: Q01DX010 (sc), vehicle: saline with Tween-80).
For `N[C@H](C(=O)O)[C@@H]1CC(Cl)=NO1`, the T/C is, setting by setting: (dose: 4.0 mg/kg/injection, schedule: Q01DX010 (sc), vehicle: suspension in saline) -87 % of control; (dose: 4.0 mg/kg/injection, schedule: Q02DX005 (sc), vehicle: saline) -33 % of control; (dose: 4.0 mg/kg/injection, schedule: Q04DX003 (sc), vehicle: saline) 52 % of control; (dose: 8.0 mg/kg/injection, schedule: Q01DX010 (sc), vehicle: saline) -100 % of control and -89 % of control and -76 % of control; (dose: 8.0 mg/kg/injection, schedule: Q01DX010 (sc), vehicle: suspension in saline) -86 % of control; (dose: 8.0 mg/kg/injection, schedule: Q02DX005 (sc), vehicle: saline) -59 % of control. Besides, the T/C is, setting by setting: (dose: 8.0 mg/kg/injection, schedule: Q04DX003 (sc), vehicle: saline) 25 % of control; (dose: 16.0 mg/kg/injection, schedule: Q01DX010 (sc), vehicle: suspension in saline) -82 % of control; (dose: 16.0 mg/kg/injection, schedule: Q02DX005 (sc), vehicle: saline) -31 % of control; (dose: 16.0 mg/kg/injection, schedule: Q04DX003 (sc), vehicle: saline) 7 % of control; (dose: 32.0 mg/kg/injection, schedule: Q01DX010 (sc), vehicle: suspension in saline) -90 % of control; (dose: 32.0 mg/kg/injection, schedule: Q04DX003 (sc), vehicle: saline) 5 % of control.
In the case of `COC(=O)[C@@]12OC[C@]34[C@H]([C@@H](O)[C@@H]1O)[C@@]1(C)CC(=O)C(O)=C(C)[C@@H]1C[C@H]3OC(=O)[C@H](OC(=O)/C=C(\C)C(C)C)[C@@H]24`, the T/C is 52 % of control (dose: 0.25 mg/kg/injection, schedule: Q04DX003 (sc), vehicle: saline + alcohol); 158 % of control (dose: 0.5 mg/kg/injection, schedule: Q04DX003 (sc), vehicle: saline + alcohol); 100 % of control (dose: 1.0 mg/kg/injection, schedule: Q04DX003 (sc), vehicle: saline + alcohol); 90 % of control (dose: 2.0 mg/kg/injection, schedule: Q04DX003 (sc), vehicle: saline + alcohol).
For the compound `C=C1C(=O)C23[C@H](O)C1CC[C@H]2[C@]12COC3(O)[C@@H](O)[C@@H]1C(C)(C)CC[C@@H]2O`, the T/C was 52 % of control (dose: 12.5 mg/kg/injection, schedule: Q04DX003 (sc), vehicle: Klucel (hydroxypropylcellulose) (HPC)) and 85 % of control (dose: 25.0 mg/kg/injection, schedule: Q04DX003 (sc), vehicle: Klucel (hydroxypropylcellulose) (HPC)).
For the compound `C=CC(=O)NCNC(=O)C=C`, the T/C is, setting by setting: under setting [3], 82 % of control; under setting [4], 91 % of control.
In the case of `CN(CCN(C)C(=O)CCOS(C)(=O)=O)C(=O)CCOS(C)(=O)=O`, the T/C (dose: 50.0 mg/kg/injection, schedule: Q04DX003 (sc), vehicle: saline with Tween-80) was 41 % of control; the T/C (dose: 50.0 mg/kg/injection, schedule: Q04DX003 (sc), vehicle: suspension in saline) was 16 % of control; the T/C (dose: 100.0 mg/kg/injection, schedule: Q04DX003 (sc), vehicle: saline with Tween-80) was 1 % of control; the T/C (dose: 100.0 mg/kg/injection, schedule: Q04DX003 (sc), vehicle: suspension in saline) was -86 % of control; the T/C (dose: 200.0 mg/kg/injection, schedule: Q04DX003 (sc), vehicle: saline with Tween-80) is -65 % of control; the T/C (dose: 200.0 mg/kg/injection, schedule: Q04DX003 (sc), vehicle: suspension in saline) was -100 % of control. Also, the T/C (dose: 400.0 mg/kg/injection, schedule: Q04DX003 (sc), vehicle: suspension in saline) was -100 % of control.
Turning to `c1ccc(CN2CCOC2)cc1`, the T/C is 60 % of control (dose: 25.0 mg/kg/injection, schedule: Q01DX010 (sc), vehicle: saline); 78 % of control under setting [3]; 70 % of control under setting [4]; 47 % of control (dose: 200.0 mg/kg/injection, schedule: Q01DX010 (sc), vehicle: saline).
With `CCCNC1=C(C)C(=O)C2=C(C1=O)[C@H](COC(N)=O)[C@]1(OC)[C@@H]3N[C@@H]3CN21`, the T/C is, setting by setting: (dose: 6.0 mg/kg/injection, schedule: Q04DX003 (sc), vehicle: suspension in saline) 1 % of control; (dose: 12.0 mg/kg/injection, schedule: Q04DX003 (sc), vehicle: suspension in saline) -83 % of control.
As to `COc1cc(NCc2ccc3nc(N)nc(N)c3c2C)cc(OC)c1OC` (tested in a mixture with another compound), the T/C by setting is: (dose: 10.0 mg/kg/injection, schedule: Q04DX003 (ip), vehicle: water) 92 % of control; (dose: 20.0 mg/kg/injection, schedule: Q04DX003 (ip), vehicle: water) 100 % of control; (dose: 40.0 mg/kg/injection, schedule: Q04DX003 (ip), vehicle: water) 101 % of control; (dose: 80.0 mg/kg/injection, schedule: Q04DX003 (ip), vehicle: water) 115 % of control; (dose: 160.0 mg/kg/injection, schedule: Q04DX003 (ip), vehicle: water) 70 % of control.
Consider `BrC1CC(Br)c2c1c1c(c3c2C(Br)CC3Br)C(Br)CC1Br` (stereo not drawn), for which the T/C reads like this: under setting [5], 92 % of control; under setting [6], 104 % of control; under setting [7], 120 % of control; under setting [8], 50 % of control.
Turning to `C1OC1CO[C@@H]1CO[C@H]2[C@@H]1OC[C@H]2OCC1CO1` (stereo partly drawn), the T/C runs as follows: (dose: 50.0 mg/kg/injection, schedule: Q01DX010 (sc), vehicle: saline with Tween-80) 45 % of control; under setting [1], 112 % of control; under setting [2], 24 % of control.
On to `Cc1noc(N)c1N`, for which the T/C was 102 % of control under setting [5], 97 % of control under setting [6], 102 % of control under setting [7] and 92 % of control under setting [8].
For `C[n+]1c(/C=C\C=C\N2CCCCC2)sc2ccccc21`, the T/C is, setting by setting: (dose: 0.75 mg/kg/injection, schedule: Q04DX003 (sc), vehicle: Klucel (hydroxypropylcellulose) (HPC)) 84 % of control; (dose: 1.5 mg/kg/injection, schedule: Q04DX003 (sc), vehicle: Klucel (hydroxypropylcellulose) (HPC)) 93 % of control.
Take `O=C1CC2(C(=O)N1CN1CCCCC1)c1ccccc1-c1ccccc12`: the T/C runs as follows: (dose: 200.0 mg/kg/injection, schedule: Q04DX003 (sc), vehicle: Klucel (hydroxypropylcellulose) (HPC)) 79 % of control; (dose: 400.0 mg/kg/injection, schedule: Q04DX003 (sc), vehicle: Klucel (hydroxypropylcellulose) (HPC)) 71 % of control; (dose: 800.0 mg/kg/injection, schedule: Q04DX003 (sc), vehicle: Klucel (hydroxypropylcellulose) (HPC)) 72 % of control.
Consider `CCCCCc1cc(O)c2c(c1)OC(C)(C)[C@@H]1CCC(C)=C[C@@H]21`, for which the T/C by setting is: (dose: 150.0 mg/kg/injection, schedule: Q04DX003 (sc), vehicle: other) 82 % of control; (dose: 300.0 mg/kg/injection, schedule: Q04DX003 (sc), vehicle: other) 81 % of control; (dose: 1200.0 mg/kg/injection, schedule: Q04DX003 (sc), vehicle: other) 83 % of control.
`CC1OC1C(=O)C1(O)C(C)C(O)C23OC2(C(O)c2c(O)cccc2C3=O)C1O` (stereo not drawn): the T/C (dose: 12.0 mg/kg/injection, schedule: Q04DX003 (sc), vehicle: Klucel (hydroxypropylcellulose) (HPC)) was 102 % of control; the T/C (dose: 24.0 mg/kg/injection, schedule: Q04DX003 (sc), vehicle: Klucel (hydroxypropylcellulose) (HPC)) is 83 % of control; the T/C (dose: 48.0 mg/kg/injection, schedule: Q04DX003 (sc), vehicle: Klucel (hydroxypropylcellulose) (HPC)) was 83 % of control.
For `C[CH2][Ge]([CH2]C)[CH2]C.C[CH2][Ge]([CH2]C)[CH2]C.C[CH2][Ge]([CH2]C)[O][Ge]([CH2]C)[CH2]C`, the T/C was 109 % of control (dose: 150.0 mg/kg/injection, schedule: Q04DX003 (sc), vehicle: saline with Tween-80) and 79 % of control (dose: 300.0 mg/kg/injection, schedule: Q04DX003 (sc), vehicle: saline with Tween-80).
